From patent US8247541B2, “Plant compositions enriched in dehydrosoyasaponin I (D-I) and methods of producing such compositions” (Her Majesty the Queen in right of Canada, as represented by …, priority 2007, dated 2012)
“Also recorded” adds a separate entry of the source. Marks after values point to notes of the source that are not given here.

Assays:
[1] = Light treatment of soyasaponin extracts/solutions followed by HPLC/ELSD (peak area ratio to internal standard alpha-hederin); assay type: physicochemical; details: 80% methanol; for D-I/D-I + S-I + S-VI / HPLC/ELSD component peak area to internal standard ratio, D-I / HPLC/ELSD component peak area to internal standard ratio, S-I / HPLC/ELSD component peak area to internal standard ratio, S-VI / HPLC/ELSD component peak area to internal standard ratio, total soyasaponins / HPLC/ELSD component peak area to internal standard ratio, unretained: 2 days fluorescent light
Description: HPLC and mass spectrometry. HP-20 MeOH samples (N=3) were prepared in 80% methanol at 8 mg/mL ( ? -hederin at 0.25 mg/mL) and syringe filtered (0.45 μm pore size, nylon membrane type, Chromatographic Specialties, Brockville, ON) into 0.25 mL glass autosampler vial inserts (Fisher no. 03-375-3A). The solutions were maintained at 15° C. before injection ([…] volume). The instrument consisted of an Alliance 2690 separations module (Waters Canada, Mississauga, ON) equipped with vacuum solvent degassing, a Waters 996 photodiode array detector (PDA) and a PL-EMD-960 evaporative light scattering detector (ELSD) (Polymer Laboratories, Amherst, Mass.) controlled by Waters Millennium software. Settings for the ELSD were attenuation=1, time constant=1 second, temperature=90°, PMT level=6 and airflow=4 liters/min. A reversed phase C-18 Symmetry™ column (3.0×150 mm, 5 μm particle size) purchased from Waters Canada and maintained at 30° C. was used. The mobile phase consisted of 0.05% trifluoroacetic acid (TFA) in water (solvent A) and 0.05% TFA in acetonitrile (solvent B), delivered at a flow rate of 0.4 mL/min. The gradient elution program consisted of 95% A and 5% B at time 0. After 10 min, the composition was 65% A and 35% B (linear, curve 6 gradient). At that time, the linear gradient progressed to 50% A and 50% B over 15 min and to 5% A-95% B over 5 min before reverting to 95% A and 5% B from 35 to 43 min. Mean values of the peak area ratios from single analysis of the three samples from each variety were reported. […]
To further investigate the possibility of S-VI undergoing visible-light-mediated phototransformation to D-I, a source of the unstable S-VI was required as well as other chromatographic fractions that might contain a photosensitizer. Starting with defatted Amit chickpea flour and with brief (minimal) exposure to visible laboratory light, we therefore isolated by the traditional hot methanol and Diaion HP-20 procedures (of Table 1) a dried HP-20 MeOH extract containing S-VI. The earlier-eluting aqueous methanol fractions (also isolated in powder form) were additionally obtained as a potential source of the photosensitizer, in addition to the chloroform extract from the defatting step. Three extraction and isolation experiments were completed (prep A, B and E). Aqueous methanol fractions (30% MeOH and <30% MeOH) containing non-saponin components (see example 7) were additionally available from an experiment on the same flour but these fractions had been isolated after exposure of the crude methanol extract to light (see Table 7).
Three concentrations of a 30% MeOH isolate were used for comparison (two concentrations were previously employed in Table 10). […] D-I to internal standard ratios were 3.3-4, equivalent to the ratios obtained in tests 3 and 4 with the aqueous methanol additions (see also trial 3 of Table 10).

[2] = Solubility of photosensitizer in extraction solvents; assay type: physicochemical
[3] = target: calcium-dependent potassium channels (Homo sapiens, UniProt Q12791+Q16558); details: cited from earlier work
[4] = tested on: stored product insect pests; details: D-I isolated from pea; cited from earlier work
[5] = potential photosensitizer 10 μM added to 100% MeOH fraction (3 mg) of Amit chickpea
[6] = potential photosensitizer 50 μM added to 100% MeOH fraction (3 mg) of Amit chickpea
[7] = potential photosensitizer 100 μM added to 100% MeOH fraction (3 mg) of Amit chickpea
[8] = potential photosensitizer 50 μM added to 100% MeOH (2.98 mg) + 30% MeOH (4.47-4.58 mg) fractions

calcium-dependent potassium channels, sequence (Q12791 whole entry): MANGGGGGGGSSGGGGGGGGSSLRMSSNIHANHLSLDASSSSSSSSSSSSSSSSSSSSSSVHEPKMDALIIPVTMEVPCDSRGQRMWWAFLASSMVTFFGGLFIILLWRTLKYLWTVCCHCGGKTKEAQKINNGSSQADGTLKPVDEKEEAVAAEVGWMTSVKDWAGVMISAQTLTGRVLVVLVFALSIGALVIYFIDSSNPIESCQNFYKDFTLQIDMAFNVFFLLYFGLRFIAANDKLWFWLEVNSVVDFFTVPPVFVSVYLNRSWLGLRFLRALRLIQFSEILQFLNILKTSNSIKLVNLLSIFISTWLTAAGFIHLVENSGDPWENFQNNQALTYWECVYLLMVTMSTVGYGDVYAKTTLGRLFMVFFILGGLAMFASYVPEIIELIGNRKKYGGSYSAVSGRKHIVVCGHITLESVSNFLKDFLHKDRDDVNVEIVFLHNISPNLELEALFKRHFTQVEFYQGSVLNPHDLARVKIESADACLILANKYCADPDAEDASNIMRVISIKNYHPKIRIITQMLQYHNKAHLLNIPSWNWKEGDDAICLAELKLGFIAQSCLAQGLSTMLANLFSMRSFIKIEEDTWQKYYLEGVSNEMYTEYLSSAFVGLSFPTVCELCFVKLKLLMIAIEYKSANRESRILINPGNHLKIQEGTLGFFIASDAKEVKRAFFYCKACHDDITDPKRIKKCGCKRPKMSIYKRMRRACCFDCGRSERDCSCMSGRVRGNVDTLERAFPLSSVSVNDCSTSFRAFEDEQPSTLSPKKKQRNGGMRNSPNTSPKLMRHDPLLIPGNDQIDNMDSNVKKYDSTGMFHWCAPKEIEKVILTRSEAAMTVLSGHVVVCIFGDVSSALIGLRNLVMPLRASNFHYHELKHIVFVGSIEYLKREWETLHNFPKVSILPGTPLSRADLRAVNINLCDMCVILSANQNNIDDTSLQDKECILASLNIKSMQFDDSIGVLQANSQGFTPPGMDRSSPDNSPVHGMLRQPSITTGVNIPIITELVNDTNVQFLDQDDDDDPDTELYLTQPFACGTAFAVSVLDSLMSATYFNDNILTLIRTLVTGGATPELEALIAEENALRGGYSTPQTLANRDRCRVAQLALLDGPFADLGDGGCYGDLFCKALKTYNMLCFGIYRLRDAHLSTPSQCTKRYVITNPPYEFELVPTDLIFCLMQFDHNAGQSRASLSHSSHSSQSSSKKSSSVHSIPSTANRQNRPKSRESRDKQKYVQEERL
calcium-dependent potassium channels, sequence (Q16558 whole entry): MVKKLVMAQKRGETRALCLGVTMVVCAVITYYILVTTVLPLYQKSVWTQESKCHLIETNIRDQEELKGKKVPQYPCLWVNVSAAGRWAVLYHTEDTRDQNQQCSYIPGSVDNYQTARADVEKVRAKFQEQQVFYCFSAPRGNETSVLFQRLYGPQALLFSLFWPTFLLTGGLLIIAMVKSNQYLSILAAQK

Compound	D-I/D-I + S-I + S-VI [1, 5]	HPLC/ELSD component peak area to internal standard ratio, D-I [1, 5]	HPLC/ELSD component peak area to internal standard ratio, S-I [1, 5]	HPLC/ELSD component peak area to internal standard ratio, S-VI [1, 5]	HPLC/ELSD component peak area to internal standard ratio, total soyasaponins [1, 5]	HPLC/ELSD component peak area to internal standard ratio, unretained [1, 5]	D-I/D-I + S-I + S-VI [1, 6]	HPLC/ELSD component peak area to internal standard ratio, D-I [1, 6]	HPLC/ELSD component peak area to internal standard ratio, S-I [1, 6]	HPLC/ELSD component peak area to internal standard ratio, S-VI [1, 6]	HPLC/ELSD component peak area to internal standard ratio, total soyasaponins [1, 6]	HPLC/ELSD component peak area to internal standard ratio, unretained [1, 6]	D-I/D-I + S-I + S-VI [1, 7]	HPLC/ELSD component peak area to internal standard ratio, D-I [1, 7]	HPLC/ELSD component peak area to internal standard ratio, S-I [1, 7]	HPLC/ELSD component peak area to internal standard ratio, S-VI [1, 7]	HPLC/ELSD component peak area to internal standard ratio, total soyasaponins [1, 7]	HPLC/ELSD component peak area to internal standard ratio, unretained [1, 7]	also measured
Cc1cc2nc3c(=O)[nH]c(=O)nc-3n(C[C@H](O)[C@H](O)[C@H](O)COP(=O)(O)OP(=O)(O)OC[C@H]3O[C@@H](n4cnc5c(N)ncnc54)[C@H](O)[C@@H]3O)c2cc1C [FAD]	0.3	3.3	6.8	<0.003	10.1	5.1	0.4	3.0	5.5	<0.003	8.6	5.6	0.4	2.8	4.0	<0.003	6.7	6.9	
Cc1cc2nc3c(=O)[nH]c(=O)nc-3n(C[C@H](O)[C@H](O)[C@H](O)COP(=O)(O)O)c2cc1C [FMN]	0.3	3.3	6.5	<0.003	9.9	4.8	0.4	2.9	4.5	<0.003	7.4	5.1	0.5	1.8	0.3^f	<0.003	2.1	6.5	
CC1=C(O)C(=O)C[C@H](O[C@@H]2CC(C)(C)C[C@H]3C4=CC[C@@H]5[C@@]6(C)CC[C@H](O[C@@H]7O[C@H](C(=O)O)[C@@H](O)[C@H](O)[C@H]7O[C@@H]7O[C@H](CO)[C@H](O)[C@H](O)[C@H]7O[C@@H]7O[C@@H](C)[C@H](O)[C@@H](O)[C@H]7O)[C@](C)(CO)[C@@H]6CC[C@@]5(C)[C@]4(C)CC[C@@]23C)O1 [S-VI, soyasaponin VI]																			stability to fluorescent light ([1]; laboratory fluorescent light levels, room temperature, a few days): labile
COc1c2ccoc2cc2oc(=O)ccc12 [bergapten]	0.1	1.6	8.2	1.2	11.0	4.8	0.1	1.2	6.0	1.2	8.4	3.8	0.2	1.7	8.0	1.4	11.1	4.4	D-I/D-I + S-I + S-VI [1, 8]: 0.3; HPLC/ELSD component peak area to internal standard ratio, D-I [1, 8]: 3.6; HPLC/ELSD component peak area to internal standard ratio, S-I [1, 8]: 7.4; HPLC/ELSD component peak area to internal standard ratio, S-VI [1, 8]: <0.003; HPLC/ELSD component peak area to internal standard ratio, total soyasaponins [1, 8]: 11.0; HPLC/ELSD component peak area to internal standard ratio, unretained [1, 8]: 70.7
Cc1cc2nc3c(=O)[nH]c(=O)nc-3n(C[C@H](O)[C@H](O)[C@H](O)CO)c2cc1C [riboflavin]																			solubility in 80% methanol ([2]; 80% methanol): soluble; solubility in chloroform ([2]; chloroform): sparingly soluble
dehydrosoyasaponin I [D-I]																			activity on calcium-dependent (calcium-activated) potassium channels ([3]; D-I isolated from leaves of Desmodium adscendens): high-affinity activator; also recorded: potent calcium-activated potassium channel opener; potency as a potassium channel opener relative to S-I ([3]; compared with S-I): 60 fold; insecticidal and antifeedant properties [4]: insecticidal and antifeedant properties
